Experiment [1] concerns the target Beta Secretase enzyme (BACE1) (Homo sapiens, UniProt P56817). In words: In vitro enzymatic BACE FRET assay. The experiment is classed as biochemical. As to conditions: read-out: BACE1 FRET assay IC50. An outline of the steps: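 BACE1 cleavage of a 50 nM fluorophore/quencher peptide FRET substrate ran for one hour in 0.05 M acetate pH 4.2, 10% DMSO, 100 uM genapol. Tris buffer raised pH to neutrality to stop the reaction before fluorescence was read (excitation 488 nm, […]).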

For experiment [2], the system named is Aβ40 in conditioned medium of cells stably expressing Amyloid Precursor Protein (APP). Kind of experiment: In vitro BACE cell-based assay (HEK cell assay), Aβ40 sandwich ELISA. An outline of the steps: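 APP-stably expressing cells (40K/well, grown 24 h in DMEM/10% FBS) were treated 24 h with compounds in 10-point dose response starting at 100 μM or 10 μM, 0.1% DMSO final. Secreted Aβ40 was measured by sandwich ELISA (pAb40 capture, biotinylated 6E10 detection, europium time-resolved fluorescence); IC50 from percent inhibition.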

The target in experiment [3] is T1, Cathepsin D (Cat D) (Homo sapiens, UniProt P07339).
T1 construct: Recombinant Cat D was expressed in CHO cells; made in house; host or cells: CHO cells
Kind of experiment: In vitro enzymatic Cathepsin D (Cat D) FRET assay. As to conditions: read-out: CatD IC50. The class given is biochemical. The method in brief:
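Recombinant Cat D expressed in CHO cells, used at 9 nM and pre-incubated one hour with serially diluted inhibitor in DMSO. Peptide substrate carries a fluorophore and quencher flanking the cleavage site; reaction stopped with Tris buffer raising pH to neutrality, then fluorescence read.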

[4] abbreviates: Homo sapiens, HEK293, average IC50, cell assay.
Setting [5] is: Homo sapiens, HEK293, average IC50, HEK cell assay.
The mark [6] stands for this setting: Homo sapiens, HEK293, average IC50, HEK cells.
Setting [7] is: Homo sapiens, HEK293, Aβ40, 24 h incubation.

Read-outs that look alike come from different tables or passages of the source. Where only a bound is given, the exact number is not on record here.

These results are taken from patent publication US20140107109A1, “AMINO-DIHYDROTHIAZINE AND AMINO-DIOXIDO DIHYDROTHIAZINE COMPOUNDS AS BETA-SECRETASE ANTAGONISTS AND METHODS OF USE” (Amgen Inc., priority 2012, published 2014).

T1 sequence (P07339 65-412, species assumed): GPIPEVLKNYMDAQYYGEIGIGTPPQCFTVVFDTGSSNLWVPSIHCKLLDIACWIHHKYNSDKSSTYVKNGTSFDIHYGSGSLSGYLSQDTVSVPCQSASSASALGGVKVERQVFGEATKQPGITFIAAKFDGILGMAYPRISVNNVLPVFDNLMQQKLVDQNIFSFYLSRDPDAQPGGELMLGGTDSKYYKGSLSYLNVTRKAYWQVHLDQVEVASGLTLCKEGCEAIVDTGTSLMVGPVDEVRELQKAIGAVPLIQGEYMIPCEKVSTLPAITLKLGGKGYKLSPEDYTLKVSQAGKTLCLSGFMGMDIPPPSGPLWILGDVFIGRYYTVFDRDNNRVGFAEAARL
Chain of Beta Secretase enzyme (BACE1) (P56817 46-501): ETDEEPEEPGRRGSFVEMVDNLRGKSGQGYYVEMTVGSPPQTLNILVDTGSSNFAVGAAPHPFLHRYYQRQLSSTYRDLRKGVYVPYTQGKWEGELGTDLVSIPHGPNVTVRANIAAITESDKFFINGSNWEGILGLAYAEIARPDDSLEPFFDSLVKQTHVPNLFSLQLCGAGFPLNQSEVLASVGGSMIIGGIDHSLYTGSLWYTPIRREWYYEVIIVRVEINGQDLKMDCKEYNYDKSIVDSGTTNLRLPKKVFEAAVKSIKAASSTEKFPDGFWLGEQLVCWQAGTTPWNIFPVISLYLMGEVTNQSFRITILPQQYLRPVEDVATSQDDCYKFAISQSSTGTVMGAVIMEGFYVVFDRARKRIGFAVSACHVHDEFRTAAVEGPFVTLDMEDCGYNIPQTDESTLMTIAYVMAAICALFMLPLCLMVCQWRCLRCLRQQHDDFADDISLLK

The term IC50 denotes the concentration at which inhibition is half-maximal. For the molecule `N#Cc1cnc2c(Nc3ccc(F)c([C@]4(CF)CS(=O)(=O)C5(CCC5)C(N)=N4)c3)ncc(F)c2c1` [Example 241, 8-((3-((7S)-9-amino-7-(fluoromethyl)-5,5-dioxido-5-thia-8-azaspiro[3.5]non-8-en-7-yl)-4-fluorophenyl)amino)-5-fluoro-1,7-naphthyridine-3-carbonitrile], the IC50 in experiment [1] (average IC50, enzyme assay) was 0.9 nM; in experiment [2] (setting [4]), 47.9 nM; in experiment [3], > 4940 nM.

Turning to `CC1(C)C(N)=N[C@](C)(c2cc(Oc3ccc(C#N)cn3)ccc2F)CS1(=O)=O` [Example 282, 6-(3-((3R)-5-amino-3,6,6-trimethyl-1,1-dioxido-3,6-dihydro-2H-1,4-thiazin-3-yl)-4-fluorophenoxy)-3-pyridinecarbonitrile], the IC50 worked out at 1560 nM in experiment [1] (average IC50, enzyme assay); 1150 nM in experiment [2] (setting [4]); 227000 nM in experiment [3].

Regarding `CC1(C)C(N)=N[C@](CF)(c2cc(NC(=O)c3ccc(C#N)cn3)ccc2F)CS1(=O)=O` [Example 406, N-(3-((3S)-5-amino-3-(fluoromethyl)-6,6-dimethyl-1,1-dioxido-3,6-dihydro-2H-1,4-thiazin-3-yl)-4-fluorophenyl)-5-cyano-2-pyridinecarboxamide], the IC50 in experiment [1] is 0.54 nM; in experiment [2] (Homo sapiens, HEK293), 14.3 nM; in experiment [3] it was > 400000 nM.

As for `CC1(C)C(N)=N[C@](C)(c2cc(NC(=O)c3cnc(OC(F)F)cn3)ccc2F)CS1(=O)=O` [Example 344, N-(3-((3R)-5-amino-3,6,6-trimethyl-1,1-dioxido-3,6-dihydro-2H-1,4-thiazin-3-yl)-4-fluorophenyl)-5-(difluoromethoxy)-2-pyrazinecarboxamide], the IC50 stood at 0.53 nM in experiment [1] (average IC50, enzyme assay); 0.4 nM in experiment [2] (setting [5]); 388000 nM in experiment [3].

On to `CC1(C)C(N)=N[C@](C)(c2cc(Oc3cc(-c4ccc(Cl)cn4)ccn3)ccc2F)CS1(=O)=O` [Example 281, (5R)-5-(5-((5-chloro-2,4′-bipyridin-2′-yl)oxy)-2-fluorophenyl)-2,2,5-trimethyl-5,6-dihydro-2H-1,4-thiazin-3-amine 1,1-dioxide], for which the 50% inhibitory concentration (IC50) in experiment [1] (average IC50, enzyme assay) came out at 807 nM; in experiment [2] (setting [4]) it was 1120 nM; in experiment [3], 61200 nM.

Take `Cc1cc(OC(F)F)cnc1C(=O)Nc1ccc(F)c([C@@]2(CF)CS(=O)(=O)C3(CC3)C(N)=N2)c1` [Example 218, N-(3-((6R)-8-amino-6-(fluoromethyl)-4,4-dioxido-4-thia-7-azaspiro[2.5]oct-7-en-6-yl)-4-fluorophenyl)-5-(difluoromethoxy)-3-methyl-2-pyridinecarboxamide]: the 50% inhibitory concentration (IC50) in experiment [1] (average IC50) was 150 nM; in experiment [2] (setting [6]), 830 nM; in experiment [3], 637000 nM.

For `Cc1cc(OC2COC2)cnc1C(=O)Nc1ccc(F)c([C@]2(CF)CS(=O)(=O)C(C)(C)C(N)=N2)c1` [Example 150, (S)—N-(3-(5-amino-3-(fluoromethyl)-6,6-dimethyl-1,1-dioxido-3,6-dihydro-2H-1,4-thiazin-3-yl)-4-fluorophenyl)-3-methyl-5-(oxetan-3-yloxy)picolinamide], the IC50 is 44.5 nM in experiment [1] (average IC50, enzyme assay); 528 nM in experiment [2] (setting [4]); 622000 nM in experiment [3].

In the case of `Cc1cc(C#N)cnc1C(=O)Nc1ccc(F)c([C@]2(C)CS(=O)(=O)C(C)(C)C(N)=N2)c1` [Example 355, N-(3-((3R)-5-amino-3,6,6-trimethyl-1,1-dioxido-3,6-dihydro-2H-1,4-thiazin-3-yl)-4-fluorophenyl)-5-cyano-3-methyl-2-pyridinecarboxamide], the half-inhibitory concentration (IC50) in experiment [1] (average IC50, enzyme assay) came out at 0.3 nM; in experiment [2] (setting [5]) it was 0.5 nM; in experiment [3], 283000 nM.

Turning to `CC1(C)C(N)=N[C@](C)(c2cc(NC(=O)c3cnc(OCC(F)(F)F)cn3)ccc2F)CS1(=O)=O` [Example 346, N-(3-((3R)-5-amino-3,6,6-trimethyl-1,1-dioxido-3,6-dihydro-2H-1,4-thiazin-3-yl)-4-fluorophenyl)-5-(2,2,2-trifluoroethoxy)-2-pyrazinecarboxamide], the IC50 in experiment [1] (average IC50, enzyme assay) was 0.45 nM; in experiment [2] (setting [5]) it was 1.4 nM; in experiment [3], > 400000 nM.

On to `CC1(C)C(N)=N[C@](C)(c2cc(Nc3ncc(F)c4cc(C#N)cnc34)ccc2F)CS1(=O)=O` [Example 76, (R)-8-((3-(5-Amino-3,6,6-trimethyl-1,1-dioxido-3,6-dihydro-2H-1,4-thiazin-3-yl)-4-fluorophenyl)amino)-5-fluoro-1,7-naphthyridine-3-carbonitrile], for which the figures for the IC50 in experiment [1], in experiment [2] (setting [7]) and in experiment [3] were 2 nM, 3.9 nM and > 44000 nM, respectively.

Take `C[C@]1(F)C(N)=N[C@](C)(c2cc(Nc3ncc(F)c4cc(C#N)cnc34)ccc2F)CS1(=O)=O` [Example 179, 8-((3-((3R,6R)-5-Amino-6-fluoro-3,6-dimethyl-1,1-dioxido-3,6-dihydro-2H-1,4-thiazin-3-yl)-4-fluorophenyl)amino)-5-fluoro-1,7-naphthyridine-3-carbonitrile]: the IC50 in experiment [1] (average IC50) is 0.8 nM; in experiment [2] (setting [6]), 157 nM; in experiment [3] it was > 44400 nM.

For the molecule `CC1(C)C(N)=N[C@](C)(c2cc(Oc3c(C#N)ccnc3Cl)ccc2F)CS1(=O)=O` [Example 308, 3-(3-((3R)-5-amino-3,6,6-trimethyl-1,1-dioxido-3,6-dihydro-2H-1,4-thiazin-3-yl)-4-fluorophenoxy)-2-chloro-4-pyridinecarbonitrile], the IC50 in experiment [1] (average IC50, enzyme assay) came to 4160 nM; in experiment [2] (setting [5]) it was 3270 nM; in experiment [3], 224000 nM.

Turning to `C[C@@]1(c2cc(Nc3nccc4cc(Cl)cnc34)ccc2F)CS(=O)(=O)C2(CCOC2)C(N)=N1` (mixture of isomers) [Example 182, (8R)-10-amino-8-(5-((3-chloro-1,7-naphthyridin-8-yl)amino)-2-fluorophenyl)-8-methyl-2-oxa-6-thia-9-azaspiro[4.5]dec-9-ene 6,6-dioxide], the IC50 in experiment [1] (average IC50) was 2.2 nM; in experiment [2] (setting [6]), 30.6 nM; in experiment [3], 63600 nM.

For `CC#CCOc1cnc(C(=O)Nc2ccc(F)c([C@]3(C)CS(=O)(=O)[C@@](C)(F)C(N)=N3)c2)cn1` [Example 317, N-(3-((3R,6R)-5-amino-6-fluoro-3,6-dimethyl-1,1-dioxido-3,6-dihydro-2H-1,4-thiazin-3-yl)-4-fluorophenyl)-5-(2-butyn-1-yloxy)-2-pyrazinecarboxamide], the 50% inhibitory concentration (IC50) is 0.21 nM in experiment [1] (average IC50, enzyme assay); 3.6 nM in experiment [2] (setting [5]); > 133000 nM in experiment [3].

With `COc1ccc(C(=O)Nc2ccc(F)c([C@]3(CF)CS(=O)(=O)C(C)(C)C(N)=N3)c2)nc1` [Example 457, N-(3-((3S)-5-amino-3-(fluoromethyl)-6,6-dimethyl-1,1-dioxido-3,6-dihydro-2H-1,4-thiazin-3-yl)-4-fluorophenyl)-5-methoxy-2-pyridinecarboxamide], the results for the IC50 in experiment [1] (average IC50), in experiment [2] (setting [6]) and in experiment [3] were 0.65 nM, 12.9 nM and 812000 nM, respectively.

As for “N-(3-((4aR,7aS)-3-amino-2,2-dimethyl-1,1-dioxido-7,7a-dihydro-2H-furo[3,4-b][1,4]thiazin-4a(5H)-yl)-4-fluorophenyl)-5-methoxy-3-methyl-2-pyridinecarboxamide, N-(3-((4aS,7aR)-3-amino-2,2-dimethyl-1,1-dioxido-7,7a-dihydro-2H-furo[3,4-b][1,4]thiazin-4a(5H)-yl)-4-fluorophenyl)-5-methoxy-3-methyl-2-pyridinecarboxamide [Example 428]”, the IC50 in experiment [1] (average IC50, enzyme assay) was found to be 9.71 nM; in experiment [2] (average IC50, cell assay) it was 37.3 nM; in experiment [3], 309000 nM.

As to `CCc1cc(Oc2ccc(F)c([C@]3(C)CS(=O)(=O)C(C)(C)C(N)=N3)c2)ccc1Cl` [Example 100, (R)-5-amino-3-(5-(4-chloro-3-ethylphenoxy)-2-fluorophenyl)-3,6,6-trimethyl-3,6-dihydro-2H-1,4-thiazine 1,1-dioxide], the IC50 is 1550 nM in experiment [1], > 10000 nM in experiment [2] (setting [7]) and 17700 nM in experiment [3].

On to `CC1(C)C(N)=N[C@](C)(c2cc(Oc3nccc(C#N)c3Cl)ccc2F)CS1(=O)=O` [Example 307, 2-(3-((3R)-5-amino-3,6,6-trimethyl-1,1-dioxido-3,6-dihydro-2H-1,4-thiazin-3-yl)-4-fluorophenoxy)-3-chloro-4-pyridinecarbonitrile], for which the IC50 in experiment [1] (average IC50, enzyme assay) stood at 168 nM; in experiment [2] (setting [5]) it was 258 nM; in experiment [3], 298000 nM.

`Cc1cccnc1Oc1ccc(F)c([C@]2(C)CS(=O)(=O)C(C)(C)C(N)=N2)c1` [Example 263, (5R)-5-(2-fluoro-5-((3-methyl-2-pyridinyl)oxy)phenyl)-2,2,5-trimethyl-5,6-dihydro-2H-1,4-thiazin-3-amine 1,1-dioxide]: the 50% inhibitory concentration (IC50) in experiment [1] (average IC50, enzyme assay) was determined as 650 nM; in experiment [2] (setting [4]) it was 624 nM; in experiment [3] it was 555000 nM.

For the molecule `CC1(C)C(N)=N[C@](C)(c2cc(Oc3ccc4ccccc4n3)ccc2F)CS1(=O)=O` [Example 261, (5R)-5-(2-fluoro-5-(2-quinolinyloxy)phenyl)-2,2,5-trimethyl-5,6-dihydro-2H-1,4-thiazin-3-amine 1,1-dioxide], the IC50 in experiment [1] (average IC50, enzyme assay) stood at 300 nM; in experiment [2] (setting [4]), 574 nM; in experiment [3], 58300 nM.
